Data: patent publication US10857105B2, “Compounds and compositions for intracellular delivery of therapeutic agents” (ModernaTX, Inc., priority 2017, dated 2020)

Legend:
[1] = Encapsulation efficiency of RNA in nanoparticle compositions (RIBOGREEN assay); format: physicochemical; conditions: Table 1A; lipid:DSPC:cholesterol:PEG-DMG 50:10:38.5:1.5 mol %
Method: For nanoparticle compositions including an RNA, a QUANT-IT™ RIBOGREEN® RNA assay (Invitrogen Corporation Carlsbad, Calif.) can be used to evaluate the encapsulation of an RNA by the nanoparticle composition. The samples are diluted to a concentration of approximately 5 μg/mL, in a TE buffer solution (10 mM Tris-HCl, 1 mM EDTA, pH 7.5). 50 μL of the diluted samples are transferred to a polystyrene 96 well plate and either 50 μL of TE buffer or 50 μL of a 2% Triton X-100 solution is added to the wells. The plate is incubated at a temperature of 37° C. for 15 minutes. The RIBOGREEN® reagent is diluted 1:100 in TE buffer, and 100 μL of this solution is added to each well. The fluorescence intensity can be measured using a fluorescence plate reader (Wallac Victor 1420 Multilabel Counter; Perkin Elmer, Waltham, Mass.) at an excitation wavelength of, for example, about 480 nm and an emission wavelength of, for example, about 520 nm. The fluorescence values of the reagent blank are subtracted from that of each of the samples and the percentage of free RNA is determined by dividing the fluorescence intensity of the intact sample (without addition of Triton X-100) by the fluorescence value of the disrupted sample (caused by the addition of Triton X-100).
(§1) Initial studies were performed to compare the delivery efficiency of nanoparticle compositions including various compounds according to Formula (I), (IA), (IB), (II), (IIa), (IIb), (IIc), (IId), (IIe), (IIf), (IIg), or (III). The cationic lipid MC3 is a current standard in the art. Accordingly, the standard MC3 formulation including about 50 mol % MC3, about 10 mol % DSPC, about 38.5 mol % cholesterol, and about 1.5 mol % PEG-DMG was used as a basis for this study. Nanoparticle compositions including DSPC as a phospholipid, cholesterol as a structural lipid, PEG-DMG as a PEG lipid, an RNA, and a compound according to Formula (I), (IA), (IB), (II), (IIa), (IIb), (IIc), (IId), (IIe), (IIf), (IIg), or (III) selected from Compounds 1-159, 168-170, and 173-175 were prepared according to or via methods similar to those described in Examples 1 and 2. The ratios of the lipids were 50:10:38.5:1.5 mol % for the lipid according to Formula (I), (IA), (IB), (II), (IIa), (IIb), (IIc), (IId), (IIe), (IIf), (IIg), or (III):DSPC:cholesterol:PEG-DMG. The RNA used was an mRNA encoding luciferase (Luc) or hEPO, wherein each uridine was replaced N1-methyl pseudouridine. Tables 1A-1E summarize the content and characteristics of the formulations.

[2] = tested on: modified luciferase; test: Luciferase expression in liver, lung, spleen and femur 6 hours after intravenous administration to mice; format: in vivo; conditions: 6 hours after intravenous 0.5 mpk, mice
Method: The efficacy of the nanoparticle compositions presented in Table 1A was further evaluated by measuring the expression of modified luciferase in the liver, lung, spleen, and femur upon administration of a given composition. Formulations were administered intravenously to mice (n=3) at a dosage of 0.5 mpk and bioluminescence measured after 6 hours. The standard MC3 formulation and a PBS control were also tested. […] Flux in the liver was lowest for compositions including Compounds 58, 59, 137, and 141. Flux in the spleen was highest for compositions including Compounds 4, 7, 33, 34, 48, 53, 108, 129, 130, and 148, and lowest for compositions including Compounds 9, 59, 124, and 141.

[3] = Particle size and polydispersity index of nanoparticle compositions (Zetasizer Nano ZS); format: physicochemical
Method: A Zetasizer Nano ZS (Malvern Instruments Ltd, Malvern, Worcestershire, UK) can be used to determine the particle size, the polydispersity index (PDI) and the zeta potential of the nanoparticle compositions in 1×PBS in determining particle size and 15 mM PBS in determining zeta potential.
as §1

[4] = Table 1A, lipid:DSPC:cholesterol:PEG-DMG 50:10:38.5:1.5 mol %
[5] = Table 1C, compositions for subcutaneous administration

Row | Compound | EE [1] [%] | Total Flux, Liver [2] | Total Flux, Lung [2] | Total Flux, Spleen [2] | Size [3, 4] [nm] | Size [3, 5] [nm] | Size ([3]; Table 1D, compositions for subcutaneous administration, # formulated with hEPO mRNA) [nm]
1 | CCCCCCCCCOC(=O)CCCCCCCN(CCO)CCCCCCCC(=O)OC(CC)CCCCCCCC (stereo not shown) [Compound 35, nonyl 8-((2-hydroxyethyl)(8-oxo-8-(undecan-3-yloxy)octyl)amino) octanoate] | 90.82 | 1.63E+08 | 2.06E+06 | 1.23E+08 |  |  | 
2 | CCCCCCCCCOC(=O)CCCCCCCN(CCO)CCCCCCCC(=O)OC(C)CCCCCCCC (stereo not shown) [Compound 36, decan-2-yl 8-((2-hydroxyethyl)(8-(nonyloxy)-8-oxooctyl)amino) octanoate] | 81.45 | 2.65E+07 | 5.82E+05 | 6.14E+07 |  |  | 
3 | CCCCCCCCC(CCCCCCCC)OC(=O)CCCCCCCN(CCO)CCCC(=O)OCCCC [Compound 51, heptadecan-9-yl 8-((4-butoxy-4-oxobutyl)(2-hydroxyethyl)amino) octanoate] | 89.83 | 2.49E+07 | 3.67E+05 | 2.80E+07 |  |  | 
4 | CCCCCCCCC(CCCCCCCC)OC(=O)CCCCCCCN(CCO)CCCC(=O)OCC1CC1CCCCCC (stereo not shown) [Compound 55, heptadecan-9-yl 8-((4-((2-hexylcyclopropyl)methoxy)-4-oxobutyl)(2-hydroxyethyl)amino)octanoate] |  | 1.92E+09 | 7.02E+06 | 2.63E+07 | 91.6 |  | 
5 | CCCCCCCCC(CCCCCCCC)OC(=O)CCCCCCCN(CCO)CCCCCCCC(=O)OC(CCCCCCCC)C1CC1 (stereo not shown) [Compound 65, 1-Cyclopropylnonyl 8-((8-(heptadecan-9-yloxy)-8-oxooctyl)(2-hydroxyethyl)amino)octanoate] |  | 9.56E+09 | 3.79E+07 | 6.57E+07 | 63.9 |  | 
6 | CCCCCCCCC(CCCCCCCC)OC(=O)CCCCCCCN(CCO)CCCC(=O)OC1CCC(CCCCC)CC1 (stereo not shown) [Compound 67, Heptadecan-9-yl 8-((2-hydroxyethyl)(4-oxo-4-((4-pentylcyclohexyl)oxy)butyl)amino)octanoate] |  | 3.60E+09 | 1.68E+07 | 2.55E+07 | 77 |  | 
7 | CCCCCCCCC(CCCCCCCC)OC(=O)CCCCCCCN(CCO)CCCCCC(=O)OC1CCC(CCCCC)CC1 (stereo not shown) [Compound 68, Heptadecan-9-yl 8-((2-hydroxyethyl)(6-oxo-6-((4-pentylcyclohexyl)oxy)hexyl)amino)octanoate] |  | 8.42E+09 | 3.98E+07 | 6.69E+07 | 76.8 |  | 
8 | CCCCCCCCC(C)OC(=O)CCCN(CCO)CCCCCCCC(=O)OC(CCCCCCCC)CCCCCCCC (stereo not shown) [Compound 70, Heptadecan-9-yl 8-((4-(decan-2-yloxy)-4-oxobutyl)(2-hydroxyethyl)amino)octanoate] |  | 8.55E+08 | 6.32E+06 | 2.06E+06 | 73.7 |  | 
9 | CCCCCCCCC(CC)OC(=O)CCCN(CCO)CCCCCCCC(=O)OC(CCCCCCCC)CCCCCCCC (stereo not shown) [Compound 72, Heptadecan-9-yl 8-((2-hydroxyethyl)(4-oxo-4-(undecan-3-yloxy)butyl)amino)octanoate] |  | 7.97E+08 | 1.05E+07 | 6.40E+06 | 76.8 | 77.3 | 
10 | CCCCCCCCC(CCC)OC(=O)CCCN(CCO)CCCCCCCC(=O)OC(CCCCCCCC)CCCCCCCC (stereo not shown) [Compound 74, Heptadecan-9-yl 8-((4-(dodecan-4-yloxy)-4-oxobutyl)(2-hydroxyethyl)amino)octanoate] |  | 1.99E+09 | 6.93E+06 | 2.26E+07 | 65.6 |  | 
11 | CCCCCCCCC(CC)OC(=O)CCCCCN(CCO)CCCCCCCC(=O)OC(CCCCCCCC)CCCCCCCC (stereo not shown) [Compound 75, Heptadecan-9-yl 8-((2-hydroxyethyl)(6-oxo-6-(undecan-3-yloxy)hexyl)amino)octanoate] |  | 1.45E+09 | 3.92E+06 | 5.66E+06 | 92.1 | 88.6 | 
12 | CCCCCCCCCOC(=O)CCCCCCCN(CCCCCCCC(=O)OC(CCCCCCCC)CCCCCCCC)CCCn1ccc(N)nc1=O [Compound 115, Heptadecan-9-yl 8-((3-(4-amino-2-oxopyrimidin-1(2H)-yl)propyl)(8-(nonyloxy)-8-oxooctyl)amino)octanoate] |  |  |  |  | 64.5 |  | 
13 | CCCCCCCCCOC(=O)CCCCCCCN(CCCCCCCC(=O)OC(CCCCCCCC)CCCCCCCC)CCCn1cnc2c(N)ncnc21 [Compound 116, Heptadecan-9-yl 8-((3-(6-amino-9H-purin-9-yl)propyl)(8-(nonyloxy)-8-oxooctyl)amino)octanoate] |  |  |  |  | 63.3 |  | 
14 | CCCCCCCCCOC(=O)CCCCCCCN(CCO)CCCCCCCC(=O)Oc1ccc(CCCCC)c(CCCCC)c1 [Compound 118, 3,4-Dipentylphenyl 8-((2-hydroxyethyl)(8-(nonyloxy)-8-oxooctyl)amino)octanoate] |  | 1.72E+08 | 1.98E+06 | 2.49E+07 | 72.1 |  | 
15 | CCCCCCCCCOC(=O)CCCCCCCN(CCO)CCCCCCCC(=O)Oc1ccc(CCCCC)cc1 [Compound 119, Nonyl 8-((2-hydroxyethyl)(8-oxo-8-(4-pentylphenoxy)octyl)amino)octanoate] |  |  |  |  | 60.8 |  | 
16 | CCCCCCCCC(CCCCCCCC)OC(=O)CCCCCCCN(C)CCCCCCCC(=O)OC(CCCCCCCC)CCCCCCCC [Compound 124, Di(heptadecan-9-yl) 8,8′-(methylazanediyl)dioctanoate] |  | 8.46E+06 | 5.67E+04 | 8.06E+04 | 61.3 |  | 
17 | CCCCCCCCCOC(=O)CCCN(C)CCCCCCCC(=O)OC(CCCCCCCC)CCCCCCCC [Compound 126, Heptadecan-9-yl 8-(methyl(4-(nonyloxy)-4-oxobutyl)amino)octanoate] |  | 7.41E+08 | 2.68E+06 | 1.87E+07 | 77.4 |  | 
18 | CCCCCCCCC(C)OC(=O)CCCCCCCN(CCO)CCCCCCCC(=O)N(CCCCCCCC)CCCCCCCC (stereo not shown) [Compound 130, Decan-2-yl 8-((8-(dioctylamino)-8-oxooctyl)(2-hydroxyethyl)amino)octanoate] |  | 8.17E+09 | 5.88E+07 | 1.35E+09 | 107.1 |  | 
19 | CCCCCCCCCOC(=O)CCCCCCCN(CCCCCCCC(=O)OC(CCCCCCCC)CCCCCCCC)CCCN1C(=O)CNC1=O [Compound 174, Heptadecan-9-yl 8-((3-(2,5-dioxoimidazolidin-1-yl)propyl)(8-(nonyloxy)-8-oxooctyl)amino)octanoate] |  |  |  |  | 84.4 |  | 
20 | CCCCCCCCCOC(=O)CCCCCCCN(CCCCCCCC(=O)OC(CCCCCCCC)CCCCCCCC)CCCNC(=N)N [Compound 207, Heptadecan-9-yl 8-((3-guanidinopropyl)(8-(nonyloxy)-8-oxooctyl)amino)octanoate] |  |  |  |  |  |  | 81.4
